We go through 20 molecules from ChEMBL document CHEMBL4229557, “Synthesis and SAR of new isoxazole-triazole bis-heterocyclic compounds as analogues of natural lignans with antiparasitic activity” (Bioorg Med Chem, 2018).

Calls of active or inactive are those of the source. The calls are words filed in the database; no cut-off is given here.

Format in all cases: functional
Experiment [1] has as its system Trypanosoma cruzi. Description: Growth inhibition of Trypanosoma cruzi Tulahuen amastigote forms infected in human THP1 cells after 72 hrs by beta-galactosidase reporter gene assay. Background: Reporter assays use an easily measured gene product as a stand-in for the process of interest.
Another experiment relates to Leishmania amazonensis. The experiment in a line: Growth inhibition of Leishmania amazonensis MHOM/BR/77/LTB0016 amastigote forms expressing beta-galactosidase infected in human THP1 cells at 100 uM by colorimetrc assay relative to control.
The test system of experiment [2] is Trypanosoma cruzi. The experiment in a line: Growth inhibition of Trypanosoma cruzi Tulahuen amastigote forms infected in human THP1 cells at 100 uM after 72 hrs by beta-galactosidase reporter gene assay relative to control. The following applies: THP-1, 72 h, read-out: GI.

The molecule `COc1ccc(-c2cc(Cn3cc(-c4ccccc4)nn3)on2)cc1OC` came in with a GI50 in the experiment on Trypanosoma cruzi [1] (THP-1, 72 h) greater than 100 µM. Further, the “growth inhibition (GI)” value in the experiment with Leishmania amazonensis is “inactive”. Besides, in the experiment with Trypanosoma cruzi [2], the inhibition of growth at 100 µM was found to be 12.2%.
The like results for `COc1ccc(-c2cc(Cn3cc(-c4ccc(OC(F)(F)F)cc4)nn3)on2)cc1` were, in that order, greater than 100 µM, “inactive” and 26%.
The like results for `COc1ccc2cc(-c3cn(Cc4cc(-c5ccccc5)no4)nn3)ccc2c1` were, in that order, greater than 100 µM, “inactive” and 43.1%.
The like results for `COc1ccc(-c2cn(Cc3cc(-c4ccccc4)no3)nn2)c(C)c1` were, in that order, greater than 100 µM, “inactive” and 18.6%.
In the experiment on Trypanosoma cruzi [1] (THP-1, 72 h), `COc1ccc(-c2cc(Cn3cc(-c4cc(C)c(C)cc4C)nn3)on2)cc1` had a GI50 greater than 100 µM. Also, in the experiment on Leishmania amazonensis, the “growth inhibition (GI)” value is “inactive”. The inhibition of growth at 100 µM in the experiment with Trypanosoma cruzi [2] turned out to be 33.4%.
The like results for `COc1ccc(-c2cc(Cn3cc(-c4ccc(F)cc4)nn3)on2)cc1OC` were, in that order, greater than 100 µM, “inactive” and 32%.
The like results for `COc1ccc(-c2cn(Cc3cc(-c4ccccc4)no3)nn2)cc1` were, in that order, greater than 100 µM, “inactive” and 43.3%.
For `O=[N+]([O-])c1ccc(-c2cn(Cc3cc(-c4ccccc4)no3)nn2)cc1`, in that order: greater than 100 µM, “inactive” and 46.9%.
As to `Fc1ccc(-c2cn(Cc3cc(-c4ccccc4)no3)nn2)cc1`, in the experiment on Trypanosoma cruzi [1], the GI50 result is “inactive”. In addition, in the experiment with Leishmania amazonensis, the “growth inhibition (GI)” value is “inactive”. The inhibition of growth at 100 µM with Trypanosoma cruzi [2] was determined as 0%.
In the case of `COc1ccc(-c2cc(Cn3cc(-c4ccc(C)cc4)nn3)on2)cc1OC`, in the experiment on Trypanosoma cruzi [1] (THP-1, 72 h), the GI50 is greater than 100 µM. In addition, in the experiment with Leishmania amazonensis, the “growth inhibition (GI)” value is “inactive”. Moreover, the inhibition of growth at 100 µM with Trypanosoma cruzi [2] stood at 7.6%.
`FC(F)(F)Oc1ccc(-c2cn(Cc3cc(-c4ccc5c(c4)OCO5)no3)nn2)cc1`: the GI50 in the experiment with Trypanosoma cruzi [1] (THP-1, 72 h) is greater than 100 µM. For the same molecule, the “growth inhibition (GI)” value in the experiment on Leishmania amazonensis is “inactive”. The inhibition of growth at 100 µM in the experiment with Trypanosoma cruzi [2] came out at 26.8%.
The like results for `Cc1ccc(-c2cn(Cc3cc(-c4ccccc4)no3)nn2)cc1` were, in that order, greater than 100 µM, “inactive” and 45.2%.
For `COc1ccc2cc(-c3cn(Cc4cc(-c5ccc(OC)c(OC)c5)no4)nn3)ccc2c1`, in that order: greater than 100 µM, “inactive” and 26.2%.
For the molecule `Nc1ccc(-c2cn(Cc3cc(-c4ccccc4)no3)nn2)cc1`, the GI50 result in the experiment on Trypanosoma cruzi [1] is “inactive”. Also, the “growth inhibition (GI)” value in the experiment on Leishmania amazonensis is “inactive”. In the experiment on Trypanosoma cruzi [2], the inhibition of growth at 100 µM was 0%.
Consider `COc1ccc(-c2cn(Cc3cc(-c4ccc(OC)cc4)no3)nn2)cc1`, for which the GI50 with Trypanosoma cruzi [1] (THP-1, 72 h) is greater than 100 µM. Also, the “growth inhibition (GI)” value with Leishmania amazonensis is “inactive”. In addition, the inhibition of growth at 100 µM in the experiment on Trypanosoma cruzi [2] was determined as 43.2%.
The like results for `c1ccc(-c2cn(Cc3cc(-c4ccccc4)no3)nn2)cc1` were, in that order, greater than 100 µM, “inactive” and 33.7%.
The molecule `CN(C)c1ccc(-c2cn(Cc3cc(-c4ccccc4)no3)nn2)cc1` gave a GI50 with Trypanosoma cruzi [1] (THP-1, 72 h) greater than 100 µM. Moreover, in the experiment on Leishmania amazonensis, the “growth inhibition (GI)” value was “inactive”. Also, in the experiment with Trypanosoma cruzi [2], the inhibition of growth at 100 µM was 32.6%.
`COc1ccc(-c2cn(Cc3cc(-c4ccc(OC)c(OC)c4)no3)nn2)c(C)c1` returned a GI50 in the experiment with Trypanosoma cruzi [1] (THP-1, 72 h) greater than 100 µM. Further, the “growth inhibition (GI)” value in the experiment with Leishmania amazonensis was “inactive”. Further, the inhibition of growth at 100 µM with Trypanosoma cruzi [2] amounted to 13.6%.
The like results for `COc1ccc(-c2cc(Cn3cc(-c4cc(C)ccc4C)nn3)on2)cc1OC` were, in that order, greater than 100 µM, “inactive” and 4%.
With `CN(C)CCCN1c2ccccc2CCc2ccc(Cl)cc21` [CLOMIPRAMINE], in the experiment on Trypanosoma cruzi [1] (THP-1, 72 h), the GI50 turned out to be 14 µM.

One may read the GI50 as the concentration giving 50% growth inhibition.
